Patent US20250230138A1, “COMPOUNDS HAVING A T-STRUCTURE FORMED BY AT LEAST FOUR CYCLES FOR USE IN THE TREATMENT OF CANCER AND OTHER INDICATIONS” (TheRas, Inc., priority 2022, published 2025)
pIC50: −log10 of the molar value. Like-named read-outs stand apart in the source and are kept apart here.

Columns and labels:
[1] = target: Cys242 in human PIK3CA (157-299) (Homo sapiens (Human), UniProt P42336); experiment: Covalent modification assay using MALDI-TOF MS; assay type: biochemical; settings: 4 h reaction time point
Outline: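 PIK3CA (157-299) at 3.33 μM or 1 μM in 20 mM HEPES, 150 mM NaCl, 2 mM MgCl2, pH 7.3 was incubated with compound (from 10 mM DMSO stocks) in the dark at room temperature for 15 min, 30 min, 2 h or 4 h. Linear-mode MALDI-TOF peak heights gave percent modification.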

pAKT in BT474 cells = experiment: Cell-based pAKT HTRF assay in BT474 cells; settings: BT474 cells, 4 hr incubation, read-out: pAKT inhibition IC50 in BT474 cells
Outline: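 Cells are seeded on day 1 and dosed on day 2 with a 9-point curve (3 μM top, 3-fold). After 4 hr they are lysed and the lysate is mixed with d2- and Eu Cryptate-labelled antibodies. HTRF is read after 4–24 h at room temperature.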

[2] = 3.33 μM protein target, 1:7.5 protein to compound ratio (compounds 1-852)
[3] = 1 μM protein target, 1:5 protein to compound ratio (compounds 853-1279)
[4] = Homo sapiens, BT-474, Compounds 10-999

Chain of Cys242 in human PIK3CA (157-299) (P42336 157-299): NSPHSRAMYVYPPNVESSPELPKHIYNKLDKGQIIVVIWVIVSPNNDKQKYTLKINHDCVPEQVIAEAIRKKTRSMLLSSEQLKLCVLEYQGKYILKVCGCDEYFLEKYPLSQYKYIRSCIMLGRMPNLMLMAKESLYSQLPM

Row | SMILES | % of modification [1, 2] | pIC50 (pAKT in BT474 cells; Compounds 10-999) | % of modification [1, 3] | pIC50 (pAKT in BT474 cells; Compounds 1000-1279) | pIC50 (pAKT in BT474 cells; [4])
1 | C=CC(=O)N1CC(n2cc(-c3nc(C4=CCC5(CC4)CNC5)c4ccsc4c3-c3ccc(F)cc3OCCOC)cn2)C1 [Compound 145] | A (percent of modification of PIK3CA protein ≥75%) | 5.52 to 6.00 | – | – | –
2 | C=CC(=O)N1CCn2nc(-c3nc(-c4ccc5c(c4)CN(C)CC5)c4ccsc4c3-c3c(F)cc(F)cc3OCCOC)cc2C1C (centres unmarked) [Compound 1104] | – | – | A (percent of modification of PIK3CA protein ≥75%) | > 7.00 | –
3 | C=CC(=O)N1CCn2nc(-c3nc(-c4ccc5c(c4)CCN(C)C5)c4ccsc4c3-c3c(F)cc(F)cc3OC(C)C)cc2[C@H]1C [Compound 507] | A (percent of modification of PIK3CA protein ≥75%) | > 7.00 | – | – | –
4 | C=CC(=O)N1CCc2cc(-c3nc(-c4ccc5c(c4)C(=O)NC5)c4ccsc4c3-c3c(F)cc(F)cc3OCCOC)nn2CC1 [Compound 1025] | – | – | A (percent of modification of PIK3CA protein ≥75%) | > 7.00 | –
5 | C=CC(=O)N1CC(n2nc(-c3nc(-c4ccc5c(c4)CCNC5)c4ccsc4c3-c3ccc(F)cc3OCCOC)ccc2=O)C1 [Compound 204] | B (50%<percent of modification <75%) | 6.00 to 7.00 | – | – | –
6 | C=CC(=O)N1CCc2cc(-c3nc(-c4ccc5nn(C)cc5c4)c4ccsc4c3-c3c(F)cc(F)cc3OCCO)nn2CC1 [Compound 1200] | – | – | A (percent of modification of PIK3CA protein ≥75%) | > 7.00 | –
7 | C=CC(=O)N1CCn2nc(-c3nc(-c4cnc5cn(C)nc5c4)c4ccsc4c3-c3c(F)cc(F)cc3OCCOC)cc2C1C (centres unmarked) [Compound 912] | – | > 7.00 | A (percent of modification of PIK3CA protein ≥75%) | – | –
8 | C=CC(=O)N1Cc2cc(-c3nc(-c4cc5n(n4)CCNC5=O)c4ccsc4c3-c3c(F)cc(F)cc3OCCOC)nn2C[C@H]1C [Compound 685] | A (percent of modification of PIK3CA protein ≥75%) | > 7.00 | – | – | –
9 | C=C(F)C(=O)N1CCn2nc(-c3nc(-c4ccc5c(c4)CCN(C)C5)c4ccsc4c3-c3c(F)cc(F)cc3OCC(C)O)cc2C1 (centres unmarked) [Compound 527] | B (50%<percent of modification <75%) | 6.00 to 7.00 | – | – | –
10 | C=CC(=O)N1Cc2cc(-c3nc(-c4ccc5c(c4)CCN(C)C5)c4ccsc4c3-c3c(F)cc(F)cc3OC(C)C)nn2C(C)C1 (centres unmarked) [Compound 556] | A (percent of modification of PIK3CA protein ≥75%) | > 7.00 | – | – | –
11 | C=CC(=O)N1CCn2nc(-c3nc(-c4ccc(OCC5CN(C)C5)cc4)c4ccsc4c3-c3c(F)cc(F)cc3OCCOC)cc2C1C (centres unmarked) [Compound 1078] | – | – | A (percent of modification of PIK3CA protein ≥75%) | > 7.00 | –
12 | C=CC(=O)N1CCc2nc(-c3nc(-c4ccc5nncn5c4)c4ccsc4c3-c3c(F)cc(F)cc3OCCOC)sc2C1 [Compound 978] | – | > 7.00 | A (percent of modification of PIK3CA protein ≥75%) | – | –
13 | C=CC(=O)N1CCn2nc(-c3nc(-c4ccc5c(c4)ncn5C)c4ccsc4c3-c3c(F)cc(F)cc3OCCO)cc2[C@H]1C [Compound 775] | A (percent of modification of PIK3CA protein ≥75%) | > 7.00 | – | – | –
14 | C=CC(=O)N1CCn2nc(-c3nc(-c4ccc(CC(=O)NC)cc4)c4ccsc4c3-c3c(F)cc(F)cc3OC)cc2C1C (centres unmarked) [Compound 1188] | – | – | A (percent of modification of PIK3CA protein ≥75%) | > 7.00 | –
15 | C=C(F)C(=O)N1CCn2nc(-c3nc(-c4ccc5c(c4)[C@@H](O)CC5)c4ccsc4c3-c3c(F)cc(F)cc3OC(C)C)cc2C1 [Compound 354] | B (50%<percent of modification <75%) | > 7.00 | – | – | –
16 | C=CC(=O)N1Cc2cc(-c3nc(-c4cnc(C)nc4)c4ccsc4c3-c3c(F)cc(F)cc3OCCO)nn2C(C)C1 (centres unmarked) [Compound 785] | A (percent of modification of PIK3CA protein ≥75%) | > 7.00 | – | – | –
17 | C=CC(=O)N1CCc2nc(-c3nc(-c4ccc5c(c4)CCN(C)C5)c4ccsc4c3-c3c(F)cc(F)cc3OC(F)F)sc2C1 [Compound 475] | B (50%<percent of modification <75%) | < 5.52 | – | – | –
18 | C=CC(=O)N1CCn2nc(-c3nc(-c4cnn(C)c4)c4ccsc4c3-c3c(F)cc(F)cc3OCCO)cc2[C@H]1C [Compound 641] | C (25%≤percent of modification <50%) | 6.00 to 7.00 | – | – | –
19 | C=CC(=O)N1CCn2nc(-c3nc(-c4ccc(OCCN(C)C)c(F)c4)c4ccsc4c3-c3c(F)cc(F)cc3OCCOC)cc2C1C (centres unmarked) [Compound 1077] | – | – | A (percent of modification of PIK3CA protein ≥75%) | > 7.00 | –

Row | SMILES | % of modification [1, 2] | pIC50 (pAKT in BT474 cells; Compounds 10-999) | % of modification [1, 3] | pIC50 (pAKT in BT474 cells; Compounds 1000-1279) | pIC50 (pAKT in BT474 cells; [4])
20 | C=CC(=O)N1CCc2cnc(-c3nc(-c4ccc5c(c4)CNC5=O)c4ccsc4c3-c3c(F)cc(F)cc3OC(C)C)cc2C1 [Compound 453, 5-[7-(2,4-difluoro-6-isopropoxy-phenyl)-6-(6-prop-2-enoyl-7,8-dihydro-5H-2,6-naphthyridin-3-yl)thieno[3,2-c]pyridin-4-yl]isoindolin-1-one] | A (percent of modification of PIK3CA protein ≥75%) | – | – | – | > 7.00
21 | C=CC(=O)N1CCn2nc(-c3nc(-c4ccc5c(c4)CN(CC(F)F)CC5)c4ccsc4c3-c3c(F)cc(F)cc3OCCO)cc2C1C (centres unmarked) [Compound 1249] | – | – | A (percent of modification of PIK3CA protein ≥75%) | > 7.00 | –
22 | COCCOc1cc(F)cc(F)c1-c1c(-c2cc3n(n2)CCN(C(=O)C(F)Cl)[C@@H]3C)nc(-c2ccc3c(cnn3C)c2)c2ccsc12 (some centres unmarked) [Compound 1228] | – | – | D (percent of modification <25%) | < 6.00 | –
23 | C=CC(=O)N1CCc2cc(-c3nc(-c4ccc5ncn(C)c5c4)c4ccsc4c3-c3c(F)cc(F)cc3OC(C)C)nn2CC1 [Compound 573] | A (percent of modification of PIK3CA protein ≥75%) | > 7.00 | – | – | –
24 | C=CC(=O)N1Cc2cc(-c3nc(-c4cnn(CC(C)(C)O)c4)c4ccsc4c3-c3c(F)cc(F)cc3OCCOC)nn2C[C@H]1C [Compound 514] | A (percent of modification of PIK3CA protein ≥75%) | > 7.00 | – | – | –
25 | C=CC(=O)N1CCn2nc(-c3nc(-c4cnn(C)c4)c4ccsc4c3-c3ccc(F)cc3OCC)cc2C1 [Compound 275] | A (percent of modification of PIK3CA protein ≥75%) | > 7.00 | – | – | –
26 | C=CC(=O)N1CCc2nc(-c3nc(-c4ccc5c(c4)CCNC5)c4ccsc4c3-c3c(F)cc(F)cc3OCC)sc2C1 [Compound 430] | A (percent of modification of PIK3CA protein ≥75%) | 6.00 to 7.00 | – | – | –
27 | C=CC(=O)N1Cc2cc(-c3nc(-c4ccc5c(c4)CCN(C)C5)c4ccsc4c3-c3c(F)cc(F)cc3OC)nn2[C@@H](C)C1 [Compound 563] | A (percent of modification of PIK3CA protein ≥75%) | > 7.00 | – | – | –
28 | C=CC(=O)N1CCc2ncc(-c3nc(-c4cnn(C)c4)c4ccsc4c3-c3c(F)cc(F)cc3OCCOC)cc2C1 [Compound 393] | A (percent of modification of PIK3CA protein ≥75%) | > 7.00 | – | – | –
29 | C=CC(=O)N1CCn2ncc(-c3nc(-c4ccc5c(c4)CCNC5)c4ccsc4c3-c3ccc(F)cc3OCCOC)c2C1 [Compound 77] | D (percent of modification <25%) | < 5.52 | – | – | –
30 | C=CC(=O)N1CCn2nc(-c3nc(-c4cnc5c(c4)CN(C)CC5)c4ccsc4c3-c3c(F)cc(F)cc3OCCOC)cc2C1C (centres unmarked) [Compound 929] | – | > 7.00 | A (percent of modification of PIK3CA protein ≥75%) | – | –
31 | C=CC(=O)N1Cc2cc(-c3nc(-c4ccc5cn(C)nc5c4)c4ccsc4c3-c3c(F)cc(F)cc3OCCO)nn2C(C)C1 (centres unmarked) [Compound 783] | A (percent of modification of PIK3CA protein ≥75%) | > 7.00 | – | – | –
32 | C=CC(=O)N1Cc2cc(-c3nc(-c4cnn(C)c4)c4ccsc4c3-c3c(F)cc(F)cc3OCCOC)nn2C[C@H]1C [Compound 577] | A (percent of modification of PIK3CA protein ≥75%) | > 7.00 | – | – | –
33 | C=CC(=O)N1CCn2nc(-c3nc(-c4cnn(C)c4)c4ccsc4c3-c3ccc(F)cc3OC(C)C)cc2C1 [Compound 200, 1-[2-[7-(4-fluoro-2-isopropoxy-phenyl)-4-(1-methylpyrazol-4-yl)thieno[3,2-c]pyridin-6-yl]-6,7-dihydro-4H-pyrazolo[1,5-a]pyrazin-5-yl]prop-2-en-1-one] | A (percent of modification of PIK3CA protein ≥75%) | – | – | – | > 7.00
34 | C=CC(=O)N1CCn2nc(-c3nc(-c4cccc(C(=O)N5CC(N(C)C)C5)c4)c4ccsc4c3-c3c(F)cc(F)cc3OCCOC)cc2C1C (centres unmarked) [Compound 1142] | – | – | A (percent of modification of PIK3CA protein ≥75%) | > 7.00 | –
35 | C=CC(=O)N1CCn2nc(-c3nc(-c4cc(F)c(=O)n(CC(F)F)c4)c4ccsc4c3-c3c(F)cc(F)cc3OCCOC)cc2C1C (centres unmarked) [Compound 1036] | – | – | A (percent of modification of PIK3CA protein ≥75%) | > 7.00 | –
36 | C=CC(=O)N1CCn2nc(-c3nc(-c4ccc(C(=O)NCC(F)F)cc4)c4ccsc4c3-c3c(F)cc(F)cc3OCCOC)cc2C1C (centres unmarked) [Compound 1183] | – | – | A (percent of modification of PIK3CA protein ≥75%) | > 7.00 | –
37 | C=C(F)C(=O)N1CCn2nc(-c3nc(-c4ccc5c(cnn5C)c4)c4ccsc4c3-c3c(F)cc(F)cc3OCCOC)cc2[C@H]1C [Compound 1226] | – | – | D (percent of modification <25%) | 6.00 to 7.00 | –
